Series [1] addresses Aldo-keto reductase family 1 member B1 (Rattus norvegicus, UniProt P07943). In kind it is tissue-based, Lens of camera-type eye.
A further series addresses Cytochrome P450 3A4 (Homo sapiens, UniProt P08684). Particulars: bti-tn-5b1-4.
A short description of series [2]: DRUGMATRIX: Sigma2 radioligand binding (ligand: [3H] Ifenprodil). In kind it is cell membranes, Rattus norvegicus, Wistar, Brain, Membrane. The conditions noted are these: Not Active = under 50% inhibition at 10 µM.
For series [3], the target named is Mitogen-activated protein kinase 1 (Homo sapiens, UniProt P28482). Briefly: DRUGMATRIX: Protein Serine/Threonine Kinase, ERK2 enzyme inhibition (substrate: Myelin Basic Protein). The conditions noted are these: Not Active = under 50% inhibition at 10 µM. Further details: species or system Escherichia coli.
Mitogen-activated protein kinase 1, sequence (P28482 whole entry): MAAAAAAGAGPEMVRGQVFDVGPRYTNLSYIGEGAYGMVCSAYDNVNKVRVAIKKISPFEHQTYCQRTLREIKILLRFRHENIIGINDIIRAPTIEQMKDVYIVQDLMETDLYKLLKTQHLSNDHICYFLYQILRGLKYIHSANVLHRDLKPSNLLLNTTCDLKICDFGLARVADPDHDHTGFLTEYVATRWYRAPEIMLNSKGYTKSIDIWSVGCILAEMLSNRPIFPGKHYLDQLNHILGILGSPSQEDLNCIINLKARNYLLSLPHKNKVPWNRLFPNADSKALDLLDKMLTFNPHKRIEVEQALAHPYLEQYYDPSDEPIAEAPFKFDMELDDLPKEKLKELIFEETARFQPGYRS
Series [4] has as its target T1, Alpha-1A adrenergic receptor (Rattus norvegicus, UniProt P43140).
T1 sequence (P43140 whole entry): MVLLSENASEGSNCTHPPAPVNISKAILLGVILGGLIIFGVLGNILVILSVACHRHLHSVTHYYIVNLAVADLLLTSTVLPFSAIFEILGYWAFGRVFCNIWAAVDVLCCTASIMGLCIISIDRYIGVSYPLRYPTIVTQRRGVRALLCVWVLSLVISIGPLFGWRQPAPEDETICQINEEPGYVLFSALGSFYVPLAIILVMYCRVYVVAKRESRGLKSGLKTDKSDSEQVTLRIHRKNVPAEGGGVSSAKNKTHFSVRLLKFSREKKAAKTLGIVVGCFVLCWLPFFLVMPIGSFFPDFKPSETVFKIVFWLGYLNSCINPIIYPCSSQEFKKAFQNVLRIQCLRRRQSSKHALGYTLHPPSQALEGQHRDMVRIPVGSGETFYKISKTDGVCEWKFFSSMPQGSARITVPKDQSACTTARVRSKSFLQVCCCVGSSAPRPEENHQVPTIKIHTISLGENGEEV
Briefly: DRUGMATRIX: Alpha-1A adrenergic receptor radioligand binding (ligand: prazosin). Particulars: Not Active = under 50% inhibition at 10 µM. In kind it is cell membranes, Wistar, Submaxillary gland, Membrane.

A further series addresses T2, Caspase-1 (Homo sapiens, UniProt P29466).
T2 sequence (P29466 whole entry): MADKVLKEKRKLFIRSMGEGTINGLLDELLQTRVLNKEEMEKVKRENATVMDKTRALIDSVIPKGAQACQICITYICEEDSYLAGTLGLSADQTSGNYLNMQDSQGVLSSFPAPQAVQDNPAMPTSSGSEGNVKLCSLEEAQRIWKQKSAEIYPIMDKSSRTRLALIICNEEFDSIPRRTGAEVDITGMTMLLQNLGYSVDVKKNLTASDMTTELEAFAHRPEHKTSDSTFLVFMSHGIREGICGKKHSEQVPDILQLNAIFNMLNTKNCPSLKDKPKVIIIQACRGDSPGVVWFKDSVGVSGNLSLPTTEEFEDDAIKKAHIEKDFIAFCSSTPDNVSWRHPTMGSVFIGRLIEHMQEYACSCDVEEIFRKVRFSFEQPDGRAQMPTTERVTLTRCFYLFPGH
The arrangement: species or system Escherichia coli.

Series [5] is described as follows: DRUGMATRIX: Sodium/nucleoside co-transporter radioligand binding (ligand: nitrobenzylthioinosine). Type of series: cell membranes, Cavia porcellus, Dunkin-Hartley, Cerebral cortex, Membrane. Particulars: Not Active = under 50% inhibition at 10 µM.

Cytochrome P450 3A4, sequence (P08684 whole entry): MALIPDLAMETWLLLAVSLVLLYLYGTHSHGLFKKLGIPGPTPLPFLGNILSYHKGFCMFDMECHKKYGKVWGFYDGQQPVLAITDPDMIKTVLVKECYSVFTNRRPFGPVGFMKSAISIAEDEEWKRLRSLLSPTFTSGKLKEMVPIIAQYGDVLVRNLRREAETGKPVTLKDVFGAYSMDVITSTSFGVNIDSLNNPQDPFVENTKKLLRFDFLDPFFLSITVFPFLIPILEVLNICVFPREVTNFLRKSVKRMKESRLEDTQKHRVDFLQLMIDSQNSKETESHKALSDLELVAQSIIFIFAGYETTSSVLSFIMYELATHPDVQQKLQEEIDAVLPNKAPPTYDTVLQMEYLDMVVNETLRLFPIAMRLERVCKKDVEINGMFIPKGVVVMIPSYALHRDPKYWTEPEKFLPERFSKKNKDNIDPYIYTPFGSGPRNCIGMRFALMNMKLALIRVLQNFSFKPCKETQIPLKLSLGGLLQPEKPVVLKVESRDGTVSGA

On to `Nc1ccn([C@@H]2O[C@H](CO)[C@@H](O)C2(F)F)c(=O)n1` [GEMCITABINE], for which the IC50 result (in series [1]; on Cytochrome P450 3A4; in series [2]; in series [3]; in series [4]; at Caspase-1) was “Not Active” in each case. Moreover, the IC50 result in series [5] is “Not Active”. Moreover, the Ki entry (on Cytochrome P450 3A4; in series [2]; in series [5]) was “Not Active” throughout.
Consider `N=C(N)NC(=O)Cc1c(Cl)cccc1Cl` [GUANFACINE], for which the IC50 result in series [1] is “Not Active”; on Cytochrome P450 3A4, “Not Active”; in series [2], “Not Active”; in series [3] it was “Not Active”; in series [4] (read-out: IC50), 1350 nM; against Caspase-1, “Not Active”. Moreover, the IC50 entry in series [5] was “Not Active”. Besides, the Ki result on Cytochrome P450 3A4 was “Not Active”; in series [2], “Not Active”; in series [4] (read-out: Ki), 546 nM; in series [5] it was “Not Active”.
For the molecule `Oc1c(Cl)cc(Cl)c(Cl)c1Cc1c(O)c(Cl)cc(Cl)c1Cl` [HEXACHLOROPHENE], the IC50 entry in series [1] is “Not Active”; against Cytochrome P450 3A4 it was “Not Active”; in series [2] it was “Not Active”; in series [3] (read-out: IC50), 196 nM; in series [4], “Not Active”; against Caspase-1, “Not Active”. The IC50 result in series [5] is given as “Not Active”. Further, the Ki result (at Cytochrome P450 3A4; in series [2]; in series [5]) was “Not Active” each time.
Take `NNc1nncc2ccccc12` [HYDRALAZINE]: the IC50 entry (in series [1]; at Cytochrome P450 3A4; in series [2]; in series [3]; in series [4]; on Caspase-1) was “Not Active” throughout. Also, in series [5], the IC50 entry was “Not Active”. The Ki result (at Cytochrome P450 3A4; in series [2]; in series [5]) was “Not Active” throughout.
With `CC(C)NNC(=O)c1ccncc1` [IPRONIAZID], the IC50 entry (in series [1]; against Cytochrome P450 3A4; in series [2]; in series [3]; in series [4]; against Caspase-1) was “Not Active” throughout. Moreover, the IC50 result in series [5] was “Not Active”. For the same molecule, the Ki entry (on Cytochrome P450 3A4; in series [2]; in series [5]) was “Not Active” each time.
Regarding `Cc1c(OCC(F)(F)F)ccnc1C[S+]([O-])c1nc2ccccc2[nH]1` (stereo unspecified) [LANSOPRAZOLE], the IC50 entry (in series [1]; at Cytochrome P450 3A4; in series [2]; in series [3]; in series [4]; at Caspase-1) was “Not Active” throughout. In addition, in series [5], the IC50 result is given as “Not Active”. Further, the Ki result (on Cytochrome P450 3A4; in series [2]; in series [5]) was “Not Active” each time.
As for `O=c1cc(N2CCOCC2)oc2c(-c3ccccc3)cccc12` [LY-294002], the IC50 entry (in series [1]; against Cytochrome P450 3A4; in series [2]; in series [3]; in series [4]; against Caspase-1) was “Not Active” each time. In addition, the IC50 result in series [5] was “Not Active”. Further, the Ki entry (at Cytochrome P450 3A4; in series [2]; in series [5]) was “Not Active” in each case.
Turning to `COc1ccc2[nH]cc(CCNC(C)=O)c2c1` [MELATONIN], the IC50 result (in series [1]; at Cytochrome P450 3A4; in series [2]; in series [3]; in series [4]; against Caspase-1) was “Not Active” in each case. Besides, the IC50 entry in series [5] is on record as “Not Active”. Further, the Ki entry (on Cytochrome P450 3A4; in series [2]; in series [5]) was “Not Active” in each case.
As for `NC(=O)C[S+]([O-])C(c1ccccc1)c1ccccc1` (stereo unspecified) [MODAFINIL], the IC50 result (in series [1]; against Cytochrome P450 3A4; in series [2]; in series [3]; in series [4]; on Caspase-1) was “Not Active” throughout. Also, in series [5], the IC50 result is recorded as “Not Active”. In addition, the Ki result (at Cytochrome P450 3A4; in series [2]; in series [5]) was “Not Active” in each case.
Regarding `CCN(CC)CCOCCC1=CCC2CC1C2(C)C` (stereo unspecified) [MYRTECAINE], the IC50 result (in series [1]; on Cytochrome P450 3A4; in series [2]; in series [3]; in series [4]; on Caspase-1) was “Not Active” in each case. Also, the IC50 result in series [5] is “Not Active”. The Ki entry (on Cytochrome P450 3A4; in series [2]; in series [5]) was “Not Active” each time.
For the molecule `O=C(O)c1cccnc1Nc1cccc(C(F)(F)F)c1` [NIFLUMIC ACID], the IC50 entry (in series [1]; at Cytochrome P450 3A4; in series [2]; in series [3]; in series [4]; on Caspase-1) was “Not Active” in each case. For the same molecule, the IC50 entry in series [5] is listed as “Not Active”. Moreover, the Ki result (on Cytochrome P450 3A4; in series [2]; in series [5]) was “Not Active” each time.
Turning to `O=C(N/N=C/c1ccc([N+](=O)[O-])o1)c1cc([N+](=O)[O-])cc([N+](=O)[O-])c1O` [NIFURSOL], the IC50 entry (in series [1]; against Cytochrome P450 3A4; in series [2]; in series [3]; in series [4]; at Caspase-1) was “Not Active” throughout. The IC50 entry in series [5] is “Not Active”. In addition, the Ki result (on Cytochrome P450 3A4; in series [2]; in series [5]) was “Not Active” each time.
For `COC(=O)Nc1nc2ccc(C(=O)c3cccs3)cc2[nH]1` [NOCODAZOLE], the concentration for half-maximal inhibition (IC50) entry (in series [1]; on Cytochrome P450 3A4; in series [2]; in series [3]; in series [4]; against Caspase-1) was “Not Active” each time. Besides, the IC50 result in series [5] was “Not Active”. Moreover, the Ki result (at Cytochrome P450 3A4; in series [2]; in series [5]) was “Not Active” each time.
Regarding `C#CC1(O)CC[C@H]2[C@@H]3CCC4=CC(=O)CC[C@@H]4[C@H]3CC[C@@]21CC` (stereo partly specified) [NORGESTREL], the IC50 entry (in series [1]; at Cytochrome P450 3A4; in series [2]; in series [3]; in series [4]; against Caspase-1) was “Not Active” each time. The IC50 result in series [5] is reported as “Not Active”. Besides, the Ki entry (at Cytochrome P450 3A4; in series [2]; in series [5]) was “Not Active” each time.
Take `COC(=O)Nc1nc2ccc([S+]([O-])c3ccccc3)cc2[nH]1` (stereo unspecified) [OXFENDAZOLE]: the IC50 entry (in series [1]; against Cytochrome P450 3A4; in series [2]; in series [3]; in series [4]; against Caspase-1) was “Not Active” each time. Also, the IC50 result in series [5] is “Not Active”. The Ki entry (on Cytochrome P450 3A4; in series [2]; in series [5]) was “Not Active” in each case.
Consider `CC(=O)O[C@H]1C(=O)[C@@]2(C)[C@H]([C@H](OC(=O)c3ccccc3)[C@]3(O)C[C@H](OC(=O)[C@H](O)[C@@H](NC(=O)c4ccccc4)c4ccccc4)C(C)=C1C3(C)C)[C@]1(OC(C)=O)CO[C@@H]1C[C@@H]2O` [PACLITAXEL], for which the IC50 entry (in series [1]; against Cytochrome P450 3A4; in series [2]; in series [3]; in series [4]; on Caspase-1) was “Not Active” throughout. The IC50 entry in series [5] is on record as “Not Active”. Moreover, the Ki entry (on Cytochrome P450 3A4; in series [2]; in series [5]) was “Not Active” in each case.
Regarding `C[n+]1ccc(-c2cc[n+](C)cc2)cc1.[Cl-].[Cl-]` [PARAQUAT DICHLORIDE], the IC50 result (in series [1]; against Cytochrome P450 3A4; in series [2]; in series [3]; in series [4]; against Caspase-1) was “Not Active” in each case. In addition, the IC50 result in series [5] was “Not Active”. For the same molecule, the Ki result (on Cytochrome P450 3A4; in series [2]; in series [5]) was “Not Active” in each case.

As a reminder, the IC50 is the concentration that inhibits the measured activity by half. What is called Ki is a measure of affinity in units of concentration, obtained from inhibition or displacement.
